Source: BindingDB's records for patent US20250034122 (Mission Therapeutics, 2025)

Biological target: T1, Ubiquitin carboxyl-terminal hydrolase 30 (Homo sapiens, UniProt Q70CQ3)
T1 sequence (Q70CQ3 whole entry): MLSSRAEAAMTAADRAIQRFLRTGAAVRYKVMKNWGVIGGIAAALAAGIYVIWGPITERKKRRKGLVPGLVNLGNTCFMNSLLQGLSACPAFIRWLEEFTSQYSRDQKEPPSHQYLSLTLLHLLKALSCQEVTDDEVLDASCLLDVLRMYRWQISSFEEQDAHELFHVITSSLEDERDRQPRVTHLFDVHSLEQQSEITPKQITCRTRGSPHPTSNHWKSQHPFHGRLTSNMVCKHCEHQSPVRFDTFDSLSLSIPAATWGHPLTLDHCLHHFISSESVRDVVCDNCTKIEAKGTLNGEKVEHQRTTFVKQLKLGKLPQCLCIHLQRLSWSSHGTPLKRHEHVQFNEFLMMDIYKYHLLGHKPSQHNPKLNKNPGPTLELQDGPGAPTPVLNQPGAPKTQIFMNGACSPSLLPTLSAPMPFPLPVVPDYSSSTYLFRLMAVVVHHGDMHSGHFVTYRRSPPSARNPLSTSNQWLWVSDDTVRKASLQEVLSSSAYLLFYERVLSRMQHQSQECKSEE
Assay: USP30 Biochemical IC50 Assay
Method: A typical 8-point dilution series would be 100, 30, 10, 3, 1, 0.3, 0.1, 0.03 μM final.

IC50: 0.011 µM
Compound: N#CN1C[C@H](NC(=O)C2NC(c3cccc(C(F)(F)F)c3)=CO2)C[C@H]1Cn1cccn1 (stereo partly specified) [US20250034122, Example 30]
